Measurements: PMC5785503, “Development of novel fluorescent histamine H1-receptor antagonists to study ligand-binding kinetics in living cells” (Scientific Reports, 2018)

Key:
human H1R = molecular target: T1, human H1R (Homo sapiens, UniProt P35367); assay: [3H]mepyramine competition radioligand binding, HEK293T cell homogenates; settings: read-out: Radioligand binding pKi (converted)
T1 construct: expressed in transfected cells
Procedure: […]. […] […]. All ligand binding was performed under gentle agitation. […] […].

Nluc-H1R [1] = molecular target: T2, Nluc-H1R (Homo sapiens, UniProt P35367); assay: NanoBRET saturation binding in whole HEK293T cells
T2 sequence (P35367 2-487 limits assumed): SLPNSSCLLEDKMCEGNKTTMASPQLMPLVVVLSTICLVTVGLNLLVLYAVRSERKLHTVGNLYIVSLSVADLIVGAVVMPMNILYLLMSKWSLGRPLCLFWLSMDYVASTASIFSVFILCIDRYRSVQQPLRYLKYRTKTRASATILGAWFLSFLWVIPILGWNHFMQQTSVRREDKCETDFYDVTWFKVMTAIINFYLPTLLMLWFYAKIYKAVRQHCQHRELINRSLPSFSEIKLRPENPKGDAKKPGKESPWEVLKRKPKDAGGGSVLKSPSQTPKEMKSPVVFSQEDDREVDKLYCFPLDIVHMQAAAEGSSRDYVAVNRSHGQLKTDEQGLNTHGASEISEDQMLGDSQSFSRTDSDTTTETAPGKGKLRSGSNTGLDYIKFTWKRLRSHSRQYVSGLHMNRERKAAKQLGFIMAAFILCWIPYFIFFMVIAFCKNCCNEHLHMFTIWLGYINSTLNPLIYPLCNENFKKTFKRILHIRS
From the text: (§1) Immediately before experimentation, media was replaced with HBSS. […] […]. […] […].

Nluc-H1R [2] = molecular target: T2, Nluc-H1R; assay: NanoBRET association kinetics in whole HEK293T cells; assay type: binding; settings: for Kd: kinetic KD (koff/kon), whole HEK293T cells expressing Nluc-H1R, read-out: NanoBRET kinetics pKD (converted); for residence time: read-out: NanoBRET kinetics Tr (residence time); for koff: read-out: NanoBRET kinetics koff, whole HEK293T cells expressing Nluc-H1R, room temperature; for kon: read-out: NanoBRET kinetics kon, whole HEK293T cells expressing Nluc-H1R, room temperature, non-specific 10 μM doxepin
From the text: as §1

H1-YFP = molecular target: T3, H1-YFP (Homo sapiens, UniProt P35367); assay type: cell-based
T3 construct: expressed in transfected cells
T3 sequence (P35367 whole entry): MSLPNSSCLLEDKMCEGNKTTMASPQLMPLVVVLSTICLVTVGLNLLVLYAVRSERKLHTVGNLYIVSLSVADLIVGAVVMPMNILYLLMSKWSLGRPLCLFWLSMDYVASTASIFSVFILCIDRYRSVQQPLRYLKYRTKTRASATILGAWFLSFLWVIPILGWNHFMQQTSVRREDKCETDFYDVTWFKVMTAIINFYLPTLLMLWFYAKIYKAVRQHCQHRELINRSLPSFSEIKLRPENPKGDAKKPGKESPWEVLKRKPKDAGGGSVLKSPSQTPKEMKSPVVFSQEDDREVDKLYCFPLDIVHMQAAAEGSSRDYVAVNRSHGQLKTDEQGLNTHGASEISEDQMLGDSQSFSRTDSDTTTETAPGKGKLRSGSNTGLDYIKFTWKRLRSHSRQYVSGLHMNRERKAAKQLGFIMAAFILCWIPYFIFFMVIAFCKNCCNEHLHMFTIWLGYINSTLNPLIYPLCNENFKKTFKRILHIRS
Procedure: CHO H1R and CHO H1-YFP cells were grown to approximately 80% confluency on 8-well Labtek chambered coverglasses (Nunc Nalgene). […] Cells were then incubated with the required concentration of fluorescent ligand for 30 min prior to the collection of single equatorial confocal images. Images were obtained using a Zeiss LSM710 confocal microscope (Carl Zeiss GmbH, Jena, Germany) fitted with a 63× plan-Apochromat NA1.3 Ph3 oil-immersion lens within the School of Life Sciences Imaging Unit. […] For all experiments a pinhole of 1 Airy Unit was used and fixed laser power, gain and offset for the BY630 containing compounds were kept the same for samples within each experiment.

H1R = molecular target: H1R; parameters: method as in PMID 22007643; settings: parent compound at the H1R; cited from earlier work
Nluc-H1R [3] = molecular target: T2, Nluc-H1R; assay: NanoBRET saturation binding in HEK293T cell membranes; settings: value used in Cheng-Prusoff equation, read-out: KD of labelled ligand in membranes
Procedure: (§2) HEK293T cell stably expressing Nluc-H1 were grown to confluence in 500 cm^2 dishes. Normal growth media was replaced with ice-cold PBS and the cells were removed from the dish by scraping. The cells were then transferred to a 50 ml tube and centrifuged at 250 × g for 5 min. The supernatant was removed and the resulting pellets stored at −80 °C. Thawed pellets were resuspended in PBS and homogenized using an electrical homogenizer in 10 × 2 s bursts. Unbroken cells and nuclei were removed by centrifugation (1200 × g for 10 min) and the supernatant subsequently centrifuged at 41,415 g for 30 min. The membrane pellet was resuspended in PBS and homogenized by 20 passes of a glass-on-Teflon homogenizer. Protein concentration was determined using a BCA protein assay and membranes stored at −80 °C until required.
(§3) Immediately before experimentation, media was replaced with HBSS. […] For association kinetics experiments, the required concentration of fluorescent ligand in the presence or absence of 10 µM doxepin was added simultaneously. […] Non-specific binding was determined by the addition of […] 10 µM doxepin.

Nluc-H1R [4] = molecular target: T2, Nluc-H1R; assay: NanoBRET association kinetics in HEK293T cell membranes; assay type: binding; settings: kinetic, n = 4, read-out: pKD (calculated affinity) in membranes (converted)
Procedure: as §2, §3
From association kinetic data, non-specific binding was determined for each concentration of fluorescent ligand at each time point by the addition of 10 µM doxepin and was subtracted from total binding.

[5] = HEK293T cells expressing Nluc-H1R, mean ± SEM, read-out: NanoBRET saturation pKD (converted)
[6] = NanoBRET, value used in Cheng-Prusoff equation, read-out: KD of labelled ligand in whole cells

T1 sequence (P35367 whole entry): as above

SMILES | Ki (human H1R) [nM] | Kd (Nluc-H1R [1]; [5]) [nM] | Kd (Nluc-H1R [2]) [nM] | residence time (Nluc-H1R [2]) [min] | koff (Nluc-H1R [2]) [s⁻¹] | kon (Nluc-H1R [2]) [M⁻¹ s⁻¹] | Kd (Nluc-H1R [1]; [6]) [nM] | fluorescence after pre-treatment with unlabelled mepyramine (specificity, confocal) (H1-YFP) | BODIPY630/650 fluorescence localisation (confocal) (H1-YFP) | pKi (H1R) | Kd (Nluc-H1R [3]) [nM] | Kd (Nluc-H1R [4]) [nM]
NC(=O)C[C@H](NC(=O)CNC(=O)CNC(=O)CCN1CCC(Oc2ccccc2Cc2ccccc2)CC1)C(=O)NCCNC(=O)CCCCCNC(=O)COc1ccc(/C=C/C2=[N+]3C(=Cc4ccc(-c5cccs5)n4[B-]3(F)F)C=C2)cc1 [Compound 24, (S,E)-2-(2-(2-(3-(4-(2-benzylphenoxy)piperidin-1-yl)propanamido)acetamido)acetamido)-N^1-(2-(6-(2-(4-(2-(5,5-difluoro-7-(thiophen-2-yl)-5H-4λ^4,5λ^4-dipyrrolo[1,2-c:2′,1′-f][1,3,2]diazaborinin-3-yl)vinyl)phenoxy)acetamido)hexanamido)ethyl)succinamide] | 5.01 | 25.1 | 10 | 37.8 ± 3.44 | 0.00045 | 48300 | – | – | – | – | – | –
C[C@H](NC(=O)CCN1CCC(Oc2ccccc2Cc2ccccc2)CC1)C(=O)N[C@@H](C)C(=O)N[C@@H](C)C(=O)NCCNC(=O)CCCCCNC(=O)COc1ccc(/C=C/C2=[N+]3C(=Cc4ccc(-c5cccs5)n4[B-]3(F)F)C=C2)cc1 [Compound 23, N-((5 S,8 S,11 S)-15-(4-(2-benzylphenoxy)piperidin-1-yl)-5,8,11-trimethyl-4,7,10,13-tetraoxo-3,6,9,12-tetraazapentadecyl)-6-(2-(4-((E)-2-(5,5-difluoro-7-(thiophen-2-yl)-5H-4λ^4,5λ^4-dipyrrolo[1,2-c:2′,1′-f][1,3,2]diazaborinin-3-yl)vinyl)phenoxy)acetamido)hexanamide] | 3.98 | 7.94 | 12.6 | 54.1 ± 5.33 | 0.000317 | 26700 | 9.8 | Some residual binding was observed | – | – | – | –
COc1ccc(CN(CCN(C)CCC(=O)NCCCC(=O)N[C@@H](C)C(=O)N[C@@H](C)C(=O)NCCNC(=O)CCCCCNC(=O)COc2ccc(/C=C/C3=[N+]4C(=Cc5ccc(-c6cccs6)n5[B-]4(F)F)C=C3)cc2)c2ccccn2)cc1 [Compound 12, 5,5-difluoro-3-((E)-4-(((15 R,18 R)-1-(4-methoxyphenyl)-5,15,18-trimethyl-8,13,16,19,24,31-hexaoxo-2-(pyridin-2-yl)-2,5,9,14,17,20,23,30-octaazadotriacontan-32-yl)oxy)styryl)-7-(thiophen-2-yl)-5H-4λ^4-dipyrrolo[1,2-c:2′,1′-f][1,3,2]diazaborinin-5-uide] | 20 | 50.1 | 39.8 | 7.68 ± 0.58 | 0.00223 | 55000 | – | very little fluorescence was observed | clear membrane localisation | – | – | –
COc1ccc(CN(CCN(C)CCC(=O)N[C@@H](C)C(=O)N[C@@H](C)C(=O)N[C@@H](CO)C(=O)NCCNC(=O)CCCCCNC(=O)COc2ccc(/C=C/C3=[N+]4C(=Cc5ccc(-c6cccs6)n5[B-]4(F)F)C=C3)cc2)c2ccccn2)cc1 [Compound 11, 6-(2-(4-((E)-2-(5,5-difluoro-7-(thiophen-2-yl)-5H-4λ^4,5λ^4-dipyrrolo[1,2-c:2′,1′-f][1,3,2]diazaborinin-3-yl)vinyl)phenoxy)acetamido)-N-((10 S,13 S,16 S)-16-(hydroxymethyl)-1-(4-methoxyphenyl)-5,10,13-trimethyl-8,11,14,17-tetraoxo-2-(pyridin-2-yl)-2,5,9,12,15,18-hexaazaicosan-20-yl)hexanamide] | 10 | 63.1 | 6.31 | 8.4 ± 0.91 | 0.0021 | 330000 | – | some residual cell surface fluorescence was observed | clear membrane localisation | – | – | –
CC(O)[C@H](NC(=O)[C@H](C)NC(=O)[C@H](CC(N)=O)NC(=O)CCN1CCC(Oc2ccccc2Cc2ccccc2)CC1)C(=O)NCCNC(=O)CCCCCNC(=O)COc1ccc(/C=C/C2=[N+]3C(=Cc4ccc(-c5cccs5)n4[B-]3(F)F)C=C2)cc1 (stereo partly drawn) [Compound 25, (S)-2-(3-(4-(2-benzylphenoxy)piperidin-1-yl)propanamido)-N^1-((15 S,18 S)-1-(4-((E)-2-(5,5-difluoro-7-(thiophen-2-yl)-5H-4λ^4,5λ^4-dipyrrolo[1,2-c:2′,1’-f][1,3,2]diazaborinin-3-yl)vinyl)phenoxy)-15-((S)-1-hydroxyethyl)-2,9,14,17-tetraoxo-3,10,13,16-tetraazanonadecan-18-yl)succinamide] | 6.31 | 31.6 | 10 | 39.5 ± 9.4 | 0.0005 | 43300 | – | – | – | – | – | –
c1ccc(Cc2ccccc2OC2CCNCC2)cc1 [VUF13816, 4-(2-benzylphenoxy)piperidine] | – | – | – | – | – | – | – | – | – | 8.20 | – | –
COc1ccc(CN(CCN(C)CCC(=O)N[C@@H](C)C(=O)N[C@@H](C)C(=O)NCCNC(=O)CCCCCNC(=O)COc2ccc(/C=C/C3=[N+]4C(=Cc5ccc(-c6cccs6)n5[B-]4(F)F)C=C3)cc2)c2ccccn2)cc1 [Compound 10, 6-(2-(4-((E)-2-(5,5-difluoro-7-(thiophen-2-yl)-5H-4λ^4,5λ^4-dipyrrolo[1,2-c:2′,1′-f][1,3,2]diazaborinin-3-yl)vinyl)phenoxy)acetamido)-N-((10 S,13 S)-1-(4-methoxyphenyl)-5,10,13-trimethyl-8,11,14-trioxo-2-(pyridin-2-yl)-2,5,9,12,15-pentaazaheptadecan-17-yl)hexanamide] | 25.1 | 7.94 | 5.01 | 4.99 ± 0.78 | – | – | 9.2 | very little fluorescence was observed | clear membrane localisation | – | 28.8 | 3.55
